For 16 compounds, IC50 results are on record in patent US8957083B2, “Spiro-amino-imidazolone and spiro-amino-dihydro-pyrimidinone compounds as beta-secretase modulators and methods of use” (Amgen Inc., priority 2010, dated 2015).

The target of one experiment is Cathepsin D (Cat D) (Homo sapiens (Human), UniProt P07339). Put plainly: In vitro enzymatic Cathepsin D (Cat D) FRET assay. The following applies: Cat D enzyme 9 nM, FRET substrate 20 nM, pH 3.5. It counts as biochemical. How it is done: In Vitro Enzymatic Cathepsin D (Cat D) FRET (Fluorescence Resonance Energy Transfer) Assay
Recombinant Cat D was expressed in CHO cells. The assay buffer for CathepsinD is 0.05 M citrate pH 3.5, 10% DMSO final, 5 mM CHAPS. The Cat D enzyme (9 nM) is pre-incubated for one hour with inhibitors, typically in about luL of DMSO according to a serial dilution, is added thereto. The assays are effectively started by the addition of different FRET substrates (20 nM for Cat D) and the combination is incubated for one hour. The FRET assay is terminated with by addition of Tris buffer, which raises the pH to neutrality, and the fluorescence is determined. The FRET substrate is a peptide with commercially available fluorophore and quencher, on opposite sides of the BACE cleavage site. The Cat D substrate peptide sequence is based on sequence #1 of Table 1 from Gulnik et al. FEB S Letters v413 p 379-384 1997. Proteolytic cleavage of the FRET substrate releases quenching of fluorescence (Cat D excitation 500 nm and emission 580 nm).
Where available, the in-vitro Cat D FRET assay data for each of the Examples, conducted by the first procedure, is provided.

Experiment [1] deals with BACE 1 (Beta Secretase enzyme) (Homo sapiens (Human), UniProt P56817). Put plainly: In vitro enzymatic BACE FRET assay. The conditions noted are these: enzyme 0.2 nM, FRET substrate 50 nM, pH 4.2. The class given is biochemical. Here is the method:
In Vitro Enzymatic BACE FRET (Fluorescence Resonance Energy Transfer) Assay (Enzyme Assay Data in the Example Table I)
The assay buffer used in this screen is 0.05 M acetate, pH 4.2, 10% DMSO final, 100 uM genapol (which is a nonionic detergent, below its Critical Micelle Concentration). […] This assay is effectively started by the addition of FRET substrate (50 nM) and the combination is incubated for one hour. The FRET assay is terminated with by addition of Tris buffer, which raises the pH to neutrality, and the fluorescence is determined. The FRET substrate is a peptide with commercially available fluorophore and quencher, on opposite sides of the BACE cleavage site. Proteolytic cleavage of the FRET substrate releases quenching of fluorescence (excitation […] and […]).

Experiment [2] deals with Aβ40 in conditioned medium of cells expressing amyloid precursor protein. Put plainly: In vitro BACE cell-based assay (HEK cell assay), Aβ40 sandwich ELISA. The following applies: Aβ40 in supernatant after 24 h incubation. Here is the method: In Vitro BACE Cell-Based Assay
The cell-based assay measures inhibition or reduction of Aβ40 in conditioned medium of test compound treated cells expressing amyloid precursor protein.
Cells stably expressing Amyloid Precursor Protein (APP) were plated at a density of 40K cells/well in 96 well plates (Costar). The cells were cultivated for 24 hours at 37° C. and 5% CO2 in DMEM supplemented with 10% FBS. The test compounds were then added to cells in 10-point dose response concentrations with the starting concentration being either 100 μM or 10 μM. The compounds were diluted from stock solutions in DMSO and the final DMSO concentration of the test compounds on cells was 0.1%. After 24 h of incubation with the test compounds the supernatant conditioned media was collected and the Aβ 40 levels were determined using a sandwich ELISA. The IC50 of the compound was calculated from the percent of control or percent inhibition of Aβ 40 as a function of the concentration of the test compound.
The sandwich ELISA to detect Aβ 40 was performed in 96 well microtiter plates, which were pre-treated with goat anti-rabbit IgG (Pierce). The capture and detecting antibody pair that were used to detect Aβ 40 from cell supernatants were affinity purified pAb40 (Biosource) and biotinylated 6E10 (Signet Labs Inc.), respectively. The optimal concentration for the pAb40 antibody was 3 μg/ml in Superblock/TBS (Pierce) that was supplemented with 0.05% Tween 20 (Sigma).
Cellular supernatants were incubated with the capture antibody for 3 h at 4° C., followed by 3 wash steps in TBS-tween (0.05%). The detecting antibody incubation was for 2 h at 4° C., again followed by the wash steps as described previously. The final readout of the ELISA is Time-Resolved Fluorescence (counts per minute) using Delfia reagents Streptavidin-Europium and Enhancement solutions (Perkin Elmer) and the Victor 2 multilabel counter (Perkin Elmer).

Setting [3] is: average IC50, read-out: BACE 1 FRET assay.
Where [4] appears, read: Homo sapiens, HEK293, 24 h, average IC50, read-out: HEK cell assay.
The mark [5] stands for this setting: class symbols, read-out: BACE 1 FRET assay (IC50 class).
Setting [6] is: Homo sapiens, HEK293, 24 h, class symbols, read-out: HEK cell assay (IC50 class).

Where two headings read alike, the source gives them in different places.

Sequence of BACE 1 (Beta Secretase enzyme) (P56817 46-501): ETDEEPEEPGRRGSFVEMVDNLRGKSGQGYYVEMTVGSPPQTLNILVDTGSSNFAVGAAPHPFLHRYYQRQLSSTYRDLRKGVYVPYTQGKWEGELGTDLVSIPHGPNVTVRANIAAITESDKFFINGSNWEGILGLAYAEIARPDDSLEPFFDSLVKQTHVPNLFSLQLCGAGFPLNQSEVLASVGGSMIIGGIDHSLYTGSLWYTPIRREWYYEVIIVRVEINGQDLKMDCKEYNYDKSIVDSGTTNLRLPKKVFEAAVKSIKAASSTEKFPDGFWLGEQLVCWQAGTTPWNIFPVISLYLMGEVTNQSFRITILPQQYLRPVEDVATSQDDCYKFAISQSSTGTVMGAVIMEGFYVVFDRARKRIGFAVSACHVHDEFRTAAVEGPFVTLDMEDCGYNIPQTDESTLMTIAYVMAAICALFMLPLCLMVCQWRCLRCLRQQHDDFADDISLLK
Sequence of Cathepsin D (Cat D) (P07339 65-412, species assumed): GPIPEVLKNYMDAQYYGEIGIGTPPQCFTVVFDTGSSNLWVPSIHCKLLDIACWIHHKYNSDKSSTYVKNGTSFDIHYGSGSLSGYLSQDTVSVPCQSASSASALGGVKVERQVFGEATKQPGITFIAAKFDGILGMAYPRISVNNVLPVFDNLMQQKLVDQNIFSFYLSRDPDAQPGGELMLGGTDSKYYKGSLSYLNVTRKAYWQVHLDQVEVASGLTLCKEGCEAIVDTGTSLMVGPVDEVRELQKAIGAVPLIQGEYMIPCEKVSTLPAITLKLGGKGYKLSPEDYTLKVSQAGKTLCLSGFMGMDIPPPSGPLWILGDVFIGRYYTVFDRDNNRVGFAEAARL

Take `COc1ccc2c(c1)C1(N=C(N)N(C)C1=O)c1cc(NC(=O)c3ccc(Cl)cn3)ccc1O2` (stereo not drawn) [Example 40, N-(2-amino-2′-methoxy-1-methyl-5-oxo-1,5-dihydrospiro[imidazole-4,9′-xanthen]-7′-yl)-5-chloropicolinamide]: the IC50 on Cathepsin D (Cat D) was 7400 nM; in experiment [1] (setting [3]) it was 6.7 nM; in experiment [2] (setting [4]), 39 nM.
In the case of `CN1C(=O)C[C@]2(N=C1N)c1cc(-c3cccnc3F)ccc1Oc1c2cc(C2=CCCOC2)nc1F` [Example 17, (S)-2′-amino-3-(5,6-dihydro-2H-pyran-3-yl)-1-fluoro-7-(2-fluoropyridin-3-yl)-1′-methyl-1′H-spiro[chromeno[2,3-c]pyridine-5,4′-pyrimidin]-6′(5′H)-one], the IC50 in experiment [1] (setting [3]) was 2.8 nM; in experiment [2] (setting [4]), 223 nM.
The matching figures for `CC#Cc1cncc(-c2ccc3c(c2)[C@]2(N=C(N)N(C)C2=O)c2cc(C4=CCOCC4)cc(F)c2O3)c1` (stereo in doubt) [Example 30, (4R)-2-amino-2′-(3,6-dihydro-2H-pyran-4-yl)-4′-fluoro-1-methyl-7′-(5-(1-propyn-1-yl)-3-pyridinyl)spiro[imidazole-4,9′-xanthen]-5(1H)-one, (4S)-2-amino-2′-(3,6-dihydro-2H-pyran-4-yl)-4′-fluoro-1-methyl-7′-(5-(1-propyn-1-yl)-3-pyridinyl)spiro[imidazole-4,9′-xanthen]-5(1H)-one]: 0.9 nM and 13.7 nM.
The matching figures for `CN1C(=O)C[C@@]2(N=C1N)c1cc(-c3cccnc3F)ccc1Oc1cnc(C3=CCCOC3)cc12` [Example 25, (R)-2′-amino-3-(5,6-dihydro-2H-pyran-3-yl)-7-(2-fluoropyridin-3-yl)-1′-methyl-1′H-spiro[chromeno[2,3-c]pyridine-5,4′-pyrimidin]-6′(5′H)-one]: 2430 nM and 6170 nM.
For `CN1C(=N)N[C@]2(CC1=O)c1cc(Br)ccc1Oc1cnc(Cl)cc12` [Example 20-B, (R)-7-bromo-3-chloro-2′-imino-1′-methyl-2′,3′-dihydro-1′H-spiro[chromeno[2,3-c]pyridine-5,4′-pyrimidin]-6′(5′H)-one], the IC50 in experiment [1] (setting [5]) and in experiment [2] (setting [6]) was > 1000 nM throughout.
Regarding `CN1C(=O)C[C@]2(N=C1N)c1cc(-c3cccnc3F)ccc1Oc1c2cc(C2=CCOC(C)(C)C2)nc1F` [Example 27, (S)-2′-amino-3-(2,2-dimethyl-3,6-dihydro-2H-pyran-4-yl)-1-fluoro-7-(2-fluoropyridin-3-yl)-1′-methyl-1′H-spiro[chromeno[2,3-c]pyridine-5,4′-pyrimidin]-6′(5′H)-one], the IC50 in experiment [1] (setting [3]) is 0.7 nM; in experiment [2] (setting [4]), 5 nM.
Take `Cc1ccc(-c2cc(F)c3c(c2)[C@@]2(N=C(N)N(C)C2=O)c2cc(-c4cccc(Cl)c4)ccc2O3)cc1` [Example 37, (4S)-2-amino-7′-(3-chlorophenyl)-4′-fluoro-1-methyl-2′-(4-methylphenyl)spiro[imidazole-4,9′-xanthen]-5(1H)-one]: the IC50 stood at 2.9 nM in experiment [1] (setting [3]) and 147 nM in experiment [2] (setting [4]).
The matching figures for `CN1C(=O)CC2(N=C1N)c1cc(-c3cccnc3F)ccc1Oc1c2cc(-c2ccnc(F)c2)nc1F` (stereo not drawn) [Example 18, 2′-amino-1-fluoro-7-(2-fluoropyridin-3-yl)-3-(2-fluoropyridin-4-yl)-1′-methyl-1′H-spiro[chromeno[2,3-c]pyridine-5,4′-pyrimidin]-6′(5′H)-one]: 2.4 nM and 71.6 nM.
As to `CC#Cc1cncc(-c2ccc3c(c2)[C@]2(N=C(N)N(C)C2=O)c2cc(C4=CCOCC4)cc(F)c2O3)c1` [Example 32, (4S)-2-amino-2′-(3,6-dihydro-2H-pyran-4-yl)-4′-fluoro-1-methyl-7′-(5-(1-propyn-1-yl)-3-pyridinyl)spiro[imidazole-4,9′-xanthen]-5(1H)-one], the IC50 in experiment [1] (setting [3]) worked out at 0.5 nM; in experiment [2] (average IC50, read-out: HEK cell assay) it was 7.6 nM.
`CN1C(=O)CC2(N=C1N)c1cc(Br)ccc1Oc1c2cc(Cl)nc1F` (stereo not drawn) [Example 11, 2′-amino-7-bromo-3-chloro-1-fluoro-1′-methyl-1′H-spiro[chromeno[2,3-c]pyridine-5,4′-pyrimidin]-6′(5′H)-one]: the IC50 in experiment [1] (setting [5]) and in experiment [2] (setting [6]) was > 1000 nM each time.
In the case of `CN1C(=N)N[C@@]2(CC1=O)c1cc(Br)ccc1Oc1cnc(Cl)cc12` [Example 20-A, (S)-7-bromo-3-chloro-2′-imino-1′-methyl-2′,3′-dihydro-1′H-spiro[chromeno[2,3-c]pyridine-5,4′-pyrimidin]-6′(5′H)-one], the IC50 in experiment [1] (setting [5]) and in experiment [2] (setting [6]) was > 1000 nM in each case.
As to `CN1C(=O)[C@]2(N=C1N)c1cc(-c3cccc(Cl)c3)ccc1Oc1c(F)cc(C3=CCOCC3)cc12` [Example 34, (4S)-2-amino-7′-(3-chlorophenyl)-2′-(3,6-dihydro-2H-pyran-4-yl)-4′-fluoro-1-methylspiro[imidazole-4,9′-xanthen]-5(1H)-one], the IC50 in experiment [1] (setting [3]) amounted to 0.3 nM; in experiment [2] (setting [4]), 9.9 nM.
For the compound `COc1ccc2c(c1)[C@]1(N=C(N)N(C)C1=O)c1cc(-c3ccc(C)cc3)cc(F)c1O2` (mixture of isomers) [Example 29, (4R)-2-amino-4′-fluoro-7′-methoxy-1-methyl-2′-(4-methylphenyl)spiro[imidazole-4,9′-xanthen]-5(1H)-one and (4S)-2-amino-4′-fluoro-7′-methoxy-1-methyl-2′-(4-methylphenyl)spiro[imidazole-4,9′-xanthen]-5(1H)-one], the IC50 in experiment [1] (setting [3]) was determined as 13.6 nM; in experiment [2] (setting [4]), 1970 nM.
On to `CN1C(=O)[C@]2(N=C1N)c1cc(C3=CCOCC3)ccc1Oc1ccc(-c3cccnc3F)cc12` (stereo in doubt) [Example 9, 2-amino-2′-(3,6-dihydro-2H-pyran-4-yl)-7′-(2-fluoropyridin-3-yl)-1-methylspiro[imidazole-4,9′-xanthen]-5(1H)-one], for which the figures for the IC50 in experiment [1] (setting [3]) and in experiment [2] (setting [4]) were 0.9 nM and 3.6 nM, respectively.
For `CN1C(=O)C[C@]2(N=C1N)c1cc(-c3cccnc3F)ccc1Oc1c2cc(-c2ccnc(F)c2)nc1F` [Example 19, (S)-2′-amino-1-fluoro-7-(2-fluoropyridin-3-yl)-3-(2-fluoropyridin-4-yl)-1′-methyl-1′H-spiro[chromeno[2,3-c]pyridine-5,4′-pyrimidin]-6′(5′H)-one] the same measures were 1.4 nM and 82 nM.
With `CN1C(=O)C[C@]2(N=C1N)c1cc(-c3cccnc3F)ccc1Oc1c2cc(C2CCOC(C)(C)C2)nc1F` (stereo partly drawn) [Example 28, (4′S)-2′-amino-3-(2,2-dimethyltetrahydro-2H-pyran-4-yl)-1-fluoro-7-(2-fluoropyridin-3-yl)-1′-methyl-1′H-spiro[chromeno[2,3-c]pyridine-5,4′-pyrimidin]-6′(5′H)-one], the IC50 in experiment [1] (setting [3]) was 2 nM; in experiment [2] (setting [4]), 2.2 nM.
